{"source": "patent US9795630B2", "about": "“Compositions and methods for inducing or enhancing connective tissue repair” (Glenpharma AB, priority 2009, dated 2017)", "origin": "cited, not measured here", "system": "superficial digital flexor tendon injuries", "details": "horses; Dyson 1977/1997 & 2004"}
{"smiles": "N#CCCN.N#CCCN.O=C(O)/C=C/C(=O)O", "note": "[BAPN, B-aminoproprionitrile fumarate]", "values": [{"measurement": "benefit of intralesional treatment (healing, recovery time, tendon repair) compared with controlled exercise alone", "value": "failed to show any benefit"}]}
